{"source": "patent US20250154202A1", "about": "“CYCLIC EPITOPE TAGS” (BIONTECH SE, priority 2022, published 2025)", "key": {"anti-ALFA VHH": {"system": "anti-ALFA VHH", "experiment": "binding affinity to the anti-ALFA VHH (log(agonist) vs. response, variable slope)", "conditions": "for EC50: binding to anti-ALFA VHH"}, "NbALFA": {"target": "NbALFA", "experiment": "SPR measurements of NbALFA binding (Biacore T200, multi cycle kinetics, 1:1 binding model)", "conditions": "for Kd / ka / kd: 25° C., HBS-EP+ buffer, biotinylated NbALFA captured", "protocol": "Affinity measurements were performed using a Biacore T200 (GE Healthcare, Biacore T200 control Software 3.2). […] A freshly docked Biotin CAPture chip was rehydrated overnight in the instrument (standby mode). […] The immobilization of the Nanobody was done for 180 s at 10 μL/min on FC2 followed by quenching of unbound streptavidin by 0.1 mM biocytin for 60 s and 30 μL/min on both flow cells. […] After each cycle, the surface was regenerated for 120 s with 10 μL/min using regeneration solution. All measurements were performed at 25° C. using HBS-EP+ buffer (Cytiva Europe, Cat. no BR100669). The control responses from FC1 were subtracted by the sample measurement in FC2 (FC2−FC1) followed by subtraction of the 0 nM blank injection. Resulting binding curves of this multi cycle kinetic experiment were fitted using the Biacore T200 Evaluation Software 3.2 and a 1:1 binding model."}, "[1]": {"experiment": "Plasma stability, human plasma", "conditions": "human, plasma, human plasma, 37° C."}, "[2]": {"experiment": "Plasma stability, mouse plasma", "conditions": "for half-life: plasma"}, "[3]": {"conditions": "Balb C, mouse, Li-heparin plasma"}, "[4]": {"conditions": "mouse plasma, 37° C., timepoint 0 h"}, "[5]": {"conditions": "mouse plasma, 37° C., timepoint 1 h"}, "[6]": {"conditions": "mouse plasma, 37° C., timepoint 3 h"}, "[7]": {"conditions": "mouse plasma, 37° C., timepoint 6 h"}}, "note": "Bridge positions count the residues as written; N and C are the ends. Square brackets hold non-standard residues; d marks the D form. Peptide text beside a SMILES is read from it.", "data": [{"compound": "Ac-SRLEEELRRRLTE-NH2 [SD15197, Ac-Ser-Arg-Leu-Glu-Glu-Glu-Leu-Arg-Arg-Arg-Leu-Thr-Glu-NH2, reference compound]", "values": [{"measurement": "LogEC50", "setting": "anti-ALFA VHH; best-fit values, log(agonist) vs. response, variable slope", "value": 0.4145}, {"measurement": "EC50", "setting": "anti-ALFA VHH", "value": 2.6, "unit": "nM"}, {"measurement": "EC50", "setting": "anti-ALFA VHH; listed as parent linear ALFA peptide", "value": 2.6, "unit": "nM"}, {"measurement": "Kd", "setting": "NbALFA", "value": 0.0117, "unit": "nM"}, {"measurement": "ka", "setting": "NbALFA", "value": "5.05e+07", "unit": "M⁻¹ s⁻¹"}, {"measurement": "kd", "setting": "NbALFA", "value": 0.000593, "unit": "s⁻¹"}]}, {"compound": "CC(=O)N1CCC[C@H]1C(=O)N[C@@H](CO)C(=O)N[C@@H](CCCNC(=N)N)C(=O)N[C@@H](CC(C)C)C(=O)N[C@@H](CCC(=O)O)C(=O)N[C@H]1CCC(=O)NCCCC[C@H](C(=O)N[C@@H](CCCNC(=N)N)C(=O)N[C@@H](CC(C)C)C(=O)N[C@H](C(=O)N[C@@H](CCC(=O)O)C(N)=O)[C@@H](C)O)NC(=O)[C@H](CCCNC(=N)N)NC(=O)[C@H](CC(C)C)NC(=O)[C@H](CCC(=O)O)NC1=O", "note": "[SD15808, Ac-Pro-Ser-Arg-Leu-Glu-(cyclo6)Glu-Glu-Leu-Arg-(cyclo10)dLys-Arg-Leu-Thr-Glu-NH2] (Ac-PSRLEEELR[dK]RLTE-NH2; lactam 6-10)", "values": [{"measurement": "Kd", "setting": "NbALFA", "value": 0.038, "unit": "nM"}, {"measurement": "ka", "setting": "NbALFA", "value": "1.35e+07", "unit": "M⁻¹ s⁻¹"}, {"measurement": "kd", "setting": "NbALFA", "value": 0.000513, "unit": "s⁻¹"}, {"measurement": "binding with respect to NbALFA", "setting": "NbALFA; in words", "value": "very good binding"}, {"measurement": "half-life", "setting": "[1]; Flag (half-life, assay exceeded)", "value": "> 6", "unit": "h"}, {"measurement": "half-life", "setting": "[1]; Half-life time, incubation 24 h (triplicates) or 6 h (duplicates)", "value": 16.1, "unit": "h"}, {"measurement": "remaining at 1 h, 10 µM", "setting": "[2]; [3]", "value": 86.9, "unit": "%"}, {"measurement": "remaining at 3 h, 10 µM", "setting": "[2]; [3]", "value": 73.7, "unit": "%"}, {"measurement": "remaining at 6 h, 10 µM", "setting": "[2]; [3]", "value": 61.1, "unit": "%"}, {"measurement": "Conc. (% of T0)", "setting": "[2]; [4]", "value": "100.0 % of T0"}, {"measurement": "Mean (compound concentration)", "setting": "[2]; [4]", "value": 3.198}, {"measurement": "Tube 2 (compound concentration)", "setting": "[2]; [4]", "value": 3.173}, {"measurement": "Tube 1 (compound concentration)", "setting": "[2]; mouse plasma, 37° C., timepoint 0 h, calibration range 0.1 to 10 μM", "value": 3.223, "unit": "x"}, {"measurement": "Mean (compound concentration)", "setting": "[2]; [5]", "value": 2.780}, {"measurement": "Tube 1 (compound concentration)", "setting": "[2]; [5]", "value": 2.668, "unit": "x"}, {"measurement": "Tube 2 (compound concentration)", "setting": "[2]; [5]", "value": 2.892}, {"measurement": "Mean (compound concentration)", "setting": "[2]; [6]", "value": 2.357}, {"measurement": "Tube 1 (compound concentration)", "setting": "[2]; [6]", "value": 2.398, "unit": "x"}, {"measurement": "Tube 2 (compound concentration)", "setting": "[2]; [6]", "value": 2.316}, {"measurement": "Mean (compound concentration)", "setting": "[2]; [7]", "value": 1.955}, {"measurement": "Tube 1 (compound concentration)", "setting": "[2]; [7]", "value": 2.018, "unit": "x"}, {"measurement": "Tube 2 (compound concentration)", "setting": "[2]; [7]", "value": 1.892}, {"measurement": "half-life", "setting": "[2]; mouse, Flag (half-life, assay exceeded), mouse plasma, 37° C.", "value": "> 6", "unit": "h"}, {"measurement": "half-life", "setting": "[2]; mouse, Half-life time, mouse plasma, 37° C., incubation 24 h (triplicates) or 6 h (duplicates)", "value": 8.74, "unit": "h"}]}]}
